Laboratory results from paper PMC11249637, “Interaction of the Atypical Tetracyclines Chelocardin and Amidochelocardin with Renal Drug Transporters” (ACS Pharmacology & Translational Science, 2024).

Molecular target: T1, mOat3 (Mus musculus, UniProt O88909)
T1 construct: expressed in transfected cells; host or cells: HEK293
T1 sequence (O88909 1-537): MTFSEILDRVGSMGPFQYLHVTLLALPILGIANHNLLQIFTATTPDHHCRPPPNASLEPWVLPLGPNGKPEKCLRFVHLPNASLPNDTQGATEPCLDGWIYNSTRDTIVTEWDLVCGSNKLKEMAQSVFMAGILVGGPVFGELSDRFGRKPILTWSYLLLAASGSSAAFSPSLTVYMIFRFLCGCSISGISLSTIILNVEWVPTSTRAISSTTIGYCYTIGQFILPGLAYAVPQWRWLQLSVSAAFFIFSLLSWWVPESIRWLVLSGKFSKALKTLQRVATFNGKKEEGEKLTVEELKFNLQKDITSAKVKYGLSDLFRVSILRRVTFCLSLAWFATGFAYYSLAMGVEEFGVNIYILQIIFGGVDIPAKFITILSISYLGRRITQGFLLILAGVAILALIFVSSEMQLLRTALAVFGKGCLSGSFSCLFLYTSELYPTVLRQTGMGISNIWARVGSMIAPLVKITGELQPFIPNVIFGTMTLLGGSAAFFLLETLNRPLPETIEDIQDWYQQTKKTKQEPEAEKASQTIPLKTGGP
Test: Three-point uptake (substrate assessment) in mOat3-overexpressing HEK293 cells
Assay type: in vitro ADME
Protocol: This is important to gain a better understanding of the underlying mechanisms of secretion into urine. Therefore, we assessed the amount of compound taken up by the vector and transporter cells at three different concentrations (1, 10, and 100 μM for mOat1 and mOct1; 0.1, 1, and 10 μM for mOat3) and at two different incubation periods (1 and 5 min for mOat1 and mOct1; 5 and 10 min for mOat3).
The incubation buffer contained CHD and CDCHD in a final concentration of 0.1, 1, and 10 μM. After 5 and 10 min, the incubation was terminated. In addition, the probe inhibitor probenecid (100 μM) was added in one concentration to 10 μM CHD and CDCHD, respectively, and after 5 and 10 min, the incubation was stopped. Inhibition of mOat3-mediated ^3H-ES (1 μM) uptake by 100 μM probenecid was performed as a control experiment. After 1 min, the incubation was terminated. All experiments were conducted in triplicate.
First, a calibration curve was prepared by spiking different concentrations of CHD and CDCHD into the cell matrix. Caffeine was used as an internal standard. In addition, quality control samples (QCs) were prepared for CHD and CDCHD in a cell matrix. The following extraction procedures were used: 300 μL of acetonitrile/water (1:1) is added to the cell pellet (sample or calibration/QC sample) for 15 min at 2000 rpm on an Eppendorf MixMate vortex mixer. 10 μL of this extracted sample is used for further analysis. 10 μL of the extracted cell sample is further extracted with 25 μL of a mixture of methanol/acetonitrile (2:1) containing 12.5 ng/mL caffeine as an internal standard (on ice) for 5 min at 2000 rpm on an Eppendorf MixMate vortex mixer. […] Samples were analyzed using an Agilent 1290 Infinity II HPLC system coupled to an AB Sciex QTrap6500plus mass spectrometer. […]
For statistical testing of differences in uptake ratio or for the inhibitory effect, an ordinary one-way ANOVA test was performed using GraphPad Prism 9.5.1 software. […] Michaelis–Menten kinetics were determined using the Michaelis–Menten algorithm of GraphPad Prism 9.5.1 software. […]

SMILES: Cc1ccc2c(C)c3c(c(O)c2c1O)C(=O)[C@@]1(O)C(=O)C(C(N)=O)=C(O)[C@@H](N)[C@H]1C3 [CDCHD, amidochelocardin]
- substrate of mOat3 (in words): is not a substrate

SMILES: CC(=O)C1=C(O)[C@@H](N)[C@H]2Cc3c(c(O)c4c(O)c(C)ccc4c3C)C(=O)[C@@]2(O)C1=O [CHD, chelocardin]
- substrate of mOat3 (in words): is a substrate
- Km (Michaelis–Menten fit, 0.1, 1 and 10 μM): 6.1 µM
